Tests used:
[1] = Solubility and chemical stability of the active substances; type: physicochemical; settings: for solubility: water and aqueous buffers at various pH values
Source text: To ensure good bioavailability of the compound, it is therefore advantageously provided in a form that promotes rapid dissolution thereof.
This has the added advantage of facilitating a more homogenous distribution of the ethinylestradiol throughout the composition which might otherwise be difficult to obtain because ethinylestradiol is incorporated in extremely small amounts. When ethinylestradiol is provided in micronized form, it preferably has the following particle size distribution as determined under the microscope: 100% of the particles have a diameter of ≦15.0 μm, 99% of the particles have a diameter of ≦12.5 μm, 95% of the particles have a diameter of ≦10.0 μm, and 50% of the particles have a diameter of ≦3.0 μm. Furthermore, no particle is larger than 20 μm, and […] have a diameter of ≧15 μm and ≦20 μm.

[2] = Relative bioavailability of drospirenone and ethinylestradiol from tablets versus oral suspension, open-label crossover study; type: in vivo; settings: female, human, tablet 3 mg drospirenone + 0.03 mg ethinylestradiol, healthy women, serum concentrations, read-out: relative bioavailability from the tablets compared to the oral suspension
Method: 42 healthy women between 18 and 35 years of age were included in an open-label crossover study after their informed consent had been obtained. The aim of the study was to investigate the relative bioavailability of drospirenone and ethinylestradiol from a tablet formulation containing 3 mg drospirenone and 0.03 mg ethinylestradiol with reference to an oral suspension containing 6 mg of drospirenone and 0.06 mg ethinylestradiol per vial.
The bioavailability was determined using serum concentrations of each active agent as parameters. […] It was therefore concluded that both drospirenone and ethinylestradiol are completely released from the tablets in vivo.

[3] = Dissolution of drospirenone from tablets, USP XXIII Paddle Method; type: physicochemical; settings: 900 ml water, 37° C., 50 rpm
Method: Instead of providing the drospirenone in micronized form, it is possible to dissolve it in a suitable solvent, e.g. methanol or ethyl acetate, and spray it onto the surface of inert carrier particles followed by incorporation of the particles containing drospirenone on their surface in the composition.
The rate of dissolution of drospirenone from the tablets prepared in Example 1 is determined by the USP XXIII Paddle Method using a USP Dissolution Test Apparatus 2 including 6 covered glass vessels and 6 paddles. Tablets are placed in 900 ml water at a temperature of 37° C. (±0.5° C.) and stirred at 50 rpm.

[4] = Absolute bioavailability of drospirenone after oral administration; settings: female, human, in vivo

| SMILES | solubility [1] | bioavailability [2] [%] | stability under acid conditions ([1]; acid conditions) | stability under alkaline conditions ([1]; alkaline conditions) | drospirenone dissolved within 30 minutes ([3]; film-coated tablets, FIG. 3) | drospirenone dissolved within 30 minutes ([3]; tablet cores, FIG. 2) | bioavailability ([4]; oral administration of 2 mg drospirenone, 8 young healthy women) [%] | bioavailability ([4]; oral microcrystalline suspension containing 3.13 mg drospirenone, 6 postmenopausal women) [%] |
| --- | --- | --- | --- | --- | --- | --- | --- | --- |
| C#C[C@]1(O)CC[C@H]2[C@@H]3CCc4cc(O)ccc4[C@H]3CC[C@@]21C [ethinylestradiol, 17α-ethinylestradiol] | sparingly soluble | 117 |  |  |  |  |  |  |
| C[C@]12CCC(=O)C=C1[C@@H]1C[C@@H]1[C@H]1[C@@H]3[C@@H]4C[C@@H]4[C@@]4(CCC(=O)O4)[C@@]3(C)CC[C@@H]12 [drospirenone, 6β,7β;15β,16β-dimethylene-3-oxo-17α-pregn-4-ene-21,17-carbolactone] | sparingly soluble | 107 | rearranged to an inactive isomer | hydrolysed | more than 70% | more than 70% | 76 | 85 |

— US6787531B1, “Pharmaceutical composition for use as a contraceptive” (Schering AG, priority 1999, dated 2004)
